# Reference: patent publication US12409206B2, “Use of cyclosporine analogues for treating fibrosis” (Hepion Pharmaceuticals, Inc., priority 2020, dated 2025)
# Read-outs that look alike come from different tables or passages of the source.
# Tested on: human precision cut liver slices (PCLS)
# Experiment: PCLS RNA-Seq, Stimulation Protocol: TGFb/PDGF+CRV vs TGFb/PDGF+Vehicle
# Type: cell-based
# Conditions: for fold change in RNA: presence of exogenous TGFβ+PDGF-BB, universal in all donors
# Description: PCLS were obtained from 5 human donors who underwent resection of liver cancer. Replicate slices were collected from healthy margins of the resections and cultured for 4 or 6 days depending on the experimental protocol. In the Nonstimulation Protocol slices were cultured for 6 days and treated for the entire period with DMSO vehicle or 5 μM CRV431. In the Stimulation Protocol slices were rested for 1 day and then administered the cytokines, TGFβ and PDGF-BB, for 3 days to stimulate inflammation and fibrosis. DMSO vehicle, CRV431 (1 and 5 μM), Alk5i (10 μM), obeticholic acid (5 μM), elafibranor (5 μM), resmetirom ([…]), and Aramchol (5 μM) were administered individually as drug treatments in the Stimulation Protocol concurrent with TGFβ+PDGF-BB. Culture medium treatments were replaced daily.
# Four types of evaluations were conducted on the PCLS: (a) secretion of inflammation and fibrosis biomarkers into the culture medium, (b) histological staining and quantitation of Sirius red as a measure of tissue fibrosis, (c) gene expression of inflammation and fibrosis biomarkers by RT-PCR, and (d) RNA sequencing (RNA-Seq) of the complete transcriptome. Each of the four types of evaluation is described below: • (a) Biomarker secretion. Spent culture medium was collected daily from duplicate slices for each treatment. ELISAs were used to quantify secretion of monocyte chemoattractant protein (MCP-1), interleukin-6 (IL-6), tissue inhibitor of metalloproteinase-1 (TIMP1), hyaluronic acid, fibronectin, and collagen 1α1. For each donor the mean level of biomarker secretion in each treatment group was expressed as a percentage change relative to DMSO vehicle, the percentages averaged for all donors, and finally the mean daily percentage change calculated from all days of evaluation. Results are shown in FIG. 8A (secreted markers-% daily average change). • (b) Sirius red histological staining. […] Sirius red was quantified morphometrically in the histological sections as the percentage area with Sirius red staining in 10 sections from each treatment. In the Nonstimulation Protocol the quantity of Sirius red staining was expressed relative to the vehicle group. In the Stimulation Protocol the quantity of Sirius red staining was expressed relative to nonstimulated PCLS (0%) and TGFβ+PDGF-BB-stimulated+vehicle PCLS (100%). Results are shown in FIG. 8B (Sirius red staining for tissue fibrosis). • (c) Gene expression by RT-PCR. RNA was isolated from duplicate liver slices per treatment at the end of the experiments and evaluated by RT-PCR for 5 markers of inflammation and fibrosis: MCP-1, IL-6, TIMP1, αSMA, and collagen 1α1. β actin was used as a reference gene to calculate relative levels of each target gene RNA. […] Results are shown in FIG. 8C (gene expression by RT-PCR). • (d) Gene expression by RNA-Seq. RNA sequencing of the complete transcriptome (30 million reads per sample) was conducted on vehicle and 5 μM CRV431 treatment groups from 3 donors both from the Nonstimulation and Stimulation Protocols. Data were analyzed by bioinformatics software programs to identify genes that were differentially expressed between vehicle and CRV431 treatments.
# For the evaluation done for (d), 12 samples corresponding to 3 different donor slides which underwent 4 different treatments were studied. the comparisons carried out in this analysis are: (1) TGFb/PDGF+CRV vs TGFb/PDGF+Vehicle (V), and (2) Non-stimulated+CRV vs Non-stimulated+Vehicle. […] Table 1. Samples for evaluation (d)
# Quality Control check was performed in all samples. All samples had more than 30 million reads and a quality score average >35 for almost all the bases in the sequences. The duplication levels are expected as it is RNA sequencing, and different copies of the same RNA are expected to be present in the samples. All samples had good amount of reads and quality, therefore all samples passed the QC checked and were included in the analysis. […]
compound,measurement,setting,value
CC[C@@H]1NC(=O)[C@H]([C@H](O)[C@H](C)CCCCCCNC(C)=O)N(C)C(=O)[C@H](C(C)C)N(C)C(=O)[C@H](CC(C)C)N(C)C(=O)[C@H](CC(C)C)N(C)C(=O)[C@@H](C)NC(=O)[C@H](C)NC(=O)[C@H](CC(C)C)N(C)C(=O)[C@H](C(C)C)NC(=O)[C@H](CC(C)C)N(C)C(=O)[C@@H](C)N(C)C1=O [CRV431],log2FoldChange,,1.025
same,log2FoldChange,"gene AC009053.1, TGFb/PDGF+CRV vs TGFb/PDGF+Vehicle",1.194
same,log2FoldChange,"gene AC134772.2, TGFb/PDGF+CRV vs TGFb/PDGF+Vehicle",−4.561
same,log2FoldChange,"gene ADH1B, TGFb/PDGF+CRV vs TGFb/PDGF+Vehicle",2.156
same,log2FoldChange,"gene ADH1C, TGFb/PDGF+CRV vs TGFb/PDGF+Vehicle",1.869
same,log2FoldChange,"gene ADH4, TGFb/PDGF+CRV vs TGFb/PDGF+Vehicle",2.123
same,log2FoldChange,"gene ADH6, TGFb/PDGF+CRV vs TGFb/PDGF+Vehicle",1.903
same,log2FoldChange,"gene ADIRF, TGFb/PDGF+CRV vs TGFb/PDGF+Vehicle",1.402
same,log2FoldChange,"gene APLNR, TGFb/PDGF+CRV vs TGFb/PDGF+Vehicle",0.844
same,log2FoldChange,"gene ASPG, TGFb/PDGF+CRV vs TGFb/PDGF+Vehicle",0.91
same,log2FoldChange,"gene ATP13A4, TGFb/PDGF+CRV vs TGFb/PDGF+Vehicle",−3.082
same,log2FoldChange,"gene C7, TGFb/PDGF+CRV vs TGFb/PDGF+Vehicle",0.739
same,log2FoldChange,"gene CA11, TGFb/PDGF+CRV vs TGFb/PDGF+Vehicle",−1.573
same,log2FoldChange,"gene CBFA2T2, TGFb/PDGF+CRV vs TGFb/PDGF+Vehicle",1.299
same,log2FoldChange,"gene CD93, TGFb/PDGF+CRV vs TGFb/PDGF+Vehicle",−0.613
same,log2FoldChange,"gene CHST1, TGFb/PDGF+CRV vs TGFb/PDGF+Vehicle",−1.087
same,log2FoldChange,"gene COL5A3, TGFb/PDGF+CRV vs TGFb/PDGF+Vehicle",−0.842
same,log2FoldChange,"gene CXADR, TGFb/PDGF+CRV vs TGFb/PDGF+Vehicle",1.61
same,log2FoldChange,"gene CYP4A11, TGFb/PDGF+CRV vs TGFb/PDGF+Vehicle",1.611
same,log2FoldChange,"gene CYP26A1, TGFb/PDGF+CRV vs TGFb/PDGF+Vehicle",−1.283
same,log2FoldChange,"gene CYP26B1, TGFb/PDGF+CRV vs TGFb/PDGF+Vehicle",−0.656
same,log2FoldChange,"gene DCHS1, TGFb/PDGF+CRV vs TGFb/PDGF+Vehicle",−0.686
same,log2FoldChange,"gene DLL4, TGFb/PDGF+CRV vs TGFb/PDGF+Vehicle",−0.69
same,log2FoldChange,"gene DUOX2, TGFb/PDGF+CRV vs TGFb/PDGF+Vehicle",−2.182
same,fold change in RNA,gene DUOX2,−4.5 fold
same,log2FoldChange,"gene DVL1, TGFb/PDGF+CRV vs TGFb/PDGF+Vehicle",0.635
same,log2FoldChange,"gene ENSG00000283623 (symbol NA), TGFb/PDGF+CRV vs TGFb/PDGF+Vehicle",−5.759
same,log2FoldChange,"gene ERVK13-1, TGFb/PDGF+CRV vs TGFb/PDGF+Vehicle",−1.125
same,log2FoldChange,"gene ESAM, TGFb/PDGF+CRV vs TGFb/PDGF+Vehicle",−0.573
same,log2FoldChange,"gene ESM1, TGFb/PDGF+CRV vs TGFb/PDGF+Vehicle",−1.401
same,fold change in RNA,gene ESMI,−2.6 fold
same,log2FoldChange,"gene ESR1, TGFb/PDGF+CRV vs TGFb/PDGF+Vehicle",3.688
same,log2FoldChange,"gene F2RL3, TGFb/PDGF+CRV vs TGFb/PDGF+Vehicle",−0.711
same,log2FoldChange,"gene GLYATL1, TGFb/PDGF+CRV vs TGFb/PDGF+Vehicle",1.438
same,log2FoldChange,"gene GPR4, TGFb/PDGF+CRV vs TGFb/PDGF+Vehicle",−0.9
same,log2FoldChange,"gene GRAP, TGFb/PDGF+CRV vs TGFb/PDGF+Vehicle",−0.772
same,log2FoldChange,"gene HIST2H2AA4, TGFb/PDGF+CRV vs TGFb/PDGF+Vehicle",−7.504
same,log2FoldChange,"gene IGHV4-61, TGFb/PDGF+CRV vs TGFb/PDGF+Vehicle",7.957
same,log2FoldChange,"gene IGLON5, TGFb/PDGF+CRV vs TGFb/PDGF+Vehicle",−0.851
same,log2FoldChange,"gene ISLR2, TGFb/PDGF+CRV vs TGFb/PDGF+Vehicle",−1.27
same,log2FoldChange,"gene KDM6A, TGFb/PDGF+CRV vs TGFb/PDGF+Vehicle",0.785
same,log2FoldChange,"gene LAMA4, TGFb/PDGF+CRV vs TGFb/PDGF+Vehicle",−0.939
same,log2FoldChange,"gene LIMS3, TGFb/PDGF+CRV vs TGFb/PDGF+Vehicle",−1.705
same,log2FoldChange,"gene LOXL2, TGFb/PDGF+CRV vs TGFb/PDGF+Vehicle",−0.948
same,fold change in RNA,gene LOXL2,−1.9 fold
same,log2FoldChange,"gene MCAM, TGFb/PDGF+CRV vs TGFb/PDGF+Vehicle",−0.841
same,log2FoldChange,"gene MEF2C, TGFb/PDGF+CRV vs TGFb/PDGF+Vehicle",−1.013
same,log2FoldChange,"gene MEG3, TGFb/PDGF+CRV vs TGFb/PDGF+Vehicle",−0.853
same,log2FoldChange,"gene MRC2, TGFb/PDGF+CRV vs TGFb/PDGF+Vehicle",−0.773
same,log2FoldChange,"gene MROH2A, TGFb/PDGF+CRV vs TGFb/PDGF+Vehicle",3.641
same,log2FoldChange,"gene MT-CO1, TGFb/PDGF+CRV vs TGFb/PDGF+Vehicle",−0.85
same,log2FoldChange,"gene NID2, TGFb/PDGF+CRV vs TGFb/PDGF+Vehicle",−0.755
same,log2FoldChange,"gene NXPH4, TGFb/PDGF+CRV vs TGFb/PDGF+Vehicle",−0.808
same,log2FoldChange,"gene PAN2, TGFb/PDGF+CRV vs TGFb/PDGF+Vehicle",1.019
same,log2FoldChange,"gene PANK3, TGFb/PDGF+CRV vs TGFb/PDGF+Vehicle",0.687
same,log2FoldChange,"gene PCDH12, TGFb/PDGF+CRV vs TGFb/PDGF+Vehicle",−0.741
same,log2FoldChange,"gene PHF8, TGFb/PDGF+CRV vs TGFb/PDGF+Vehicle",0.709
same,log2FoldChange,"gene PKLR, TGFb/PDGF+CRV vs TGFb/PDGF+Vehicle",2.127
same,log2FoldChange,"gene PLXNA2, TGFb/PDGF+CRV vs TGFb/PDGF+Vehicle",1.326
same,log2FoldChange,"gene POU6F1, TGFb/PDGF+CRV vs TGFb/PDGF+Vehicle",−1.716
same,log2FoldChange,"gene PPP1R16B, TGFb/PDGF+CRV vs TGFb/PDGF+Vehicle",−1.016
same,log2FoldChange,"gene RALGPS2, TGFb/PDGF+CRV vs TGFb/PDGF+Vehicle",0.836
same,log2FoldChange,"gene RBMXL1, TGFb/PDGF+CRV vs TGFb/PDGF+Vehicle",−8.265
same,log2FoldChange,"gene RCCD1, TGFb/PDGF+CRV vs TGFb/PDGF+Vehicle",−1.838
same,fold change in RNA,gene RCCD1,−3.6 fold
same,log2FoldChange,"gene RHCG, TGFb/PDGF+CRV vs TGFb/PDGF+Vehicle",−0.927
same,log2FoldChange,"gene RPS7P1, TGFb/PDGF+CRV vs TGFb/PDGF+Vehicle",2.668
same,log2FoldChange,"gene SLC4A8, TGFb/PDGF+CRV vs TGFb/PDGF+Vehicle",−2.641
same,log2FoldChange,"gene SLC26A6, TGFb/PDGF+CRV vs TGFb/PDGF+Vehicle",−0.692
same,log2FoldChange,"gene SLC39A5, TGFb/PDGF+CRV vs TGFb/PDGF+Vehicle",1.92
same,log2FoldChange,"gene SMC5, TGFb/PDGF+CRV vs TGFb/PDGF+Vehicle",0.799
same,log2FoldChange,"gene STRA6, TGFb/PDGF+CRV vs TGFb/PDGF+Vehicle",−1.639
same,fold change in RNA,gene STRA6,−3.1 fold
same,log2FoldChange,"gene TDO2, TGFb/PDGF+CRV vs TGFb/PDGF+Vehicle",0.916
same,log2FoldChange,"gene TMEM70, TGFb/PDGF+CRV vs TGFb/PDGF+Vehicle",1.062
same,log2FoldChange,"gene TTYH2, TGFb/PDGF+CRV vs TGFb/PDGF+Vehicle",−1.114
same,fold change in RNA,gene UBD/FAT10,−2.0 fold
same,log2FoldChange,"gene UBD, TGFb/PDGF+CRV vs TGFb/PDGF+Vehicle",−1.035
same,log2FoldChange,"gene VWA8, TGFb/PDGF+CRV vs TGFb/PDGF+Vehicle",1.514
same,log2FoldChange,"gene ZC3H10, TGFb/PDGF+CRV vs TGFb/PDGF+Vehicle",1.022
same,log2FoldChange,"gene ZDHHC20, TGFb/PDGF+CRV vs TGFb/PDGF+Vehicle",1.207
same,log2FoldChange,"gene ZNF461, TGFb/PDGF+CRV vs TGFb/PDGF+Vehicle",1.391
